Measured values from PubChem BioAssay AID1963850 (Molecular Pharmacology Branch, DTP, NCI, 2024).

System: 192522-019-R-J2-PDC complex tumor spheroid viability
Assay: Anticancer human tumor 192522-019-R-J2-PDC patient-derived colon adenocarcinoma cell line growth inhibition [POLQ]
Conditions: for IC50: curve of first compound; for viability, T/C: stronger effect = lower value
Outline: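 Three-cell-type spheroids modelling solid tumor plus stroma served as the readout system; POL inhibitors were tested individually and in combination, concentration ranges set by clinical Cmax where known.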

[1] = second compound 0.0316 µM, first compound 0.0316 µM
[2] = second compound 0.0316 µM, first compound 0.1 µM
[3] = second compound 0.0316 µM, first compound 0.316 µM
[4] = second compound 0.0316 µM, first compound 1 µM
[5] = second compound 0.0316 µM, first compound 3.16 µM
[6] = second compound 0.0316 µM, first compound 10 µM
[7] = second compound 0.1 µM, first compound 0.0316 µM
[8] = second compound 0.1 µM, first compound 0.1 µM
[9] = second compound 0.1 µM, first compound 0.316 µM
[10] = second compound 0.1 µM, first compound 1 µM
[11] = second compound 0.1 µM, first compound 3.16 µM
[12] = second compound 0.1 µM, first compound 10 µM
[13] = second compound 0.316 µM, first compound 0.0316 µM
[14] = second compound 0.316 µM, first compound 0.1 µM
[15] = second compound 0.316 µM, first compound 0.316 µM
[16] = second compound 0.316 µM, first compound 1 µM
[17] = second compound 0.316 µM, first compound 3.16 µM
[18] = second compound 0.316 µM, first compound 10 µM
[19] = second compound 1 µM, first compound 0.0316 µM
[20] = second compound 1 µM, first compound 0.1 µM
[21] = second compound 1 µM, first compound 0.316 µM
[22] = second compound 1 µM, first compound 1 µM
[23] = second compound 1 µM, first compound 3.16 µM
[24] = second compound 1 µM, first compound 10 µM
[25] = second compound 3.16 µM, first compound 0.0316 µM
[26] = second compound 3.16 µM, first compound 0.1 µM
[27] = second compound 3.16 µM, first compound 0.316 µM
[28] = second compound 3.16 µM, first compound 1 µM
[29] = second compound 3.16 µM, first compound 3.16 µM
[30] = second compound 3.16 µM, first compound 10 µM
[31] = second compound 10 µM, first compound 0.0316 µM
[32] = second compound 10 µM, first compound 0.1 µM
[33] = second compound 10 µM, first compound 0.316 µM
[34] = second compound 10 µM, first compound 1 µM
[35] = second compound 10 µM, first compound 3.16 µM
[36] = second compound 10 µM, first compound 10 µM
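Also: spheroids exposed to drugs for seven days before reading.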
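For viability, T/C in this document: 100% = DMSO vehicle control viability in luminescence.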

`C#Cc1c(F)ccc2cc(O)cc(-c3ncc4c(N5CC6CCC(C5)N6)nc(OCC56CCCN5CC(F)C6)nc4c3F)c12` (centres undefined) + Cc1cccc(N(C)C(=O)C2C(O)CCN2c2nc(C)cc(C(F)(F)F)c2C#N)c1 showed an IC50 (second compound 0.0316 µM) greater than 10 µM, an IC50 (second compound 0.1 µM) greater than 10 µM and an IC50 (second compound 0.316 µM) greater than 10 µM. For the same compound, the IC50 (second compound 1 µM) was greater than 10 µM, the IC50 (second compound 3.16 µM) was greater than 10 µM and the IC50 (second compound 10 µM) was greater than 10 µM. The viability, T/C [1] was 102%, the viability, T/C [2] was 78.8% and the viability, T/C [3] was 78.5%. The viability, T/C [4] was 82.1%, the viability, T/C [5] was 76.5% and the viability, T/C [6] was 66.5%. The viability, T/C [7] was 103%, the viability, T/C [8] was 86.2% and the viability, T/C [9] was 91.1%. The viability, T/C [10] was 76%, the viability, T/C [11] was 73.4% and the viability, T/C [12] was 70.4%. The viability, T/C [13] was 95%, the viability, T/C [14] was 87.8% and the viability, T/C [15] was 88.3%. For the same compound, the viability, T/C [16] was 79.4%, the viability, T/C [17] was 79.3% and the viability, T/C [18] was 72.8%. For the same compound, the viability, T/C [19] was 91.8%, the viability, T/C [20] was 91.4% and the viability, T/C [21] was 95%. It also gave a viability, T/C [22] of 88.5%, a viability, T/C [23] of 77.7% and a viability, T/C [24] of 79.1%. The viability, T/C [25] was 98.7%, the viability, T/C [26] was 107% and the viability, T/C [27] was 94.2%. It also gave a viability, T/C [28] of 83%, a viability, T/C [29] of 84.5% and a viability, T/C [30] of 73.3%. The viability, T/C [31] was 117%, the viability, T/C [32] was 96.7% and the viability, T/C [33] was 89.6%. The viability, T/C [34] was 78.2%, the viability, T/C [35] was 88.1% and the viability, T/C [36] was 73.4%.
Work on `C=CC(=O)N1CCN(c2nc(=O)n(-c3c(C)ccnc3C(C)C)c3nc(-c4c(O)cccc4F)c(F)cc23)C(C)C1` (centres undefined) + Cc1cccc(N(C)C(=O)C2C(O)CCN2c2nc(C)cc(C(F)(F)F)c2C#N)c1 yielded an IC50 (second compound 0.0316 µM) greater than 10 µM, an IC50 (second compound 0.1 µM) greater than 10 µM and an IC50 (second compound 0.316 µM) greater than 10 µM. For the same compound, the IC50 (second compound 1 µM) was greater than 10 µM, the IC50 (second compound 3.16 µM) was greater than 10 µM and the IC50 (second compound 10 µM) was greater than 10 µM. It also gave a viability, T/C [1] of 114%, a viability, T/C [2] of 85% and a viability, T/C [3] of 101%. The viability, T/C [4] was 93.8%, the viability, T/C [5] was 109% and the viability, T/C [6] was 97.9%. For the same compound, the viability, T/C [7] was 106%, the viability, T/C [8] was 91.4% and the viability, T/C [9] was 98.8%. The viability, T/C [10] was 103%, the viability, T/C [11] was 100% and the viability, T/C [12] was 110%. The viability, T/C [13] was 95.2%, the viability, T/C [14] was 96.9% and the viability, T/C [15] was 100%. The viability, T/C [16] was 105%, the viability, T/C [17] was 101% and the viability, T/C [18] was 103%. It also gave a viability, T/C [19] of 102%, a viability, T/C [20] of 105% and a viability, T/C [21] of 109%. The viability, T/C [22] was 106%, the viability, T/C [23] was 102% and the viability, T/C [24] was 110%. The viability, T/C [25] was 102%, the viability, T/C [26] was 96.5% and the viability, T/C [27] was 108%. The viability, T/C [28] was 98%, the viability, T/C [29] was 106% and the viability, T/C [30] was 113%. The viability, T/C [31] was 107%, the viability, T/C [32] was 101% and the viability, T/C [33] was 107%. It also gave a viability, T/C [34] of 113%, a viability, T/C [35] of 114% and a viability, T/C [36] of 107%.
